Source: patent publication US12102637B2, “Pharmaceutical formulations for treating endometriosis, uterine fibroids, polycystic ovary syndrome or adenomyosis” (AbbVie Inc., priority 2017, dated 2024)
Marks after values point to notes of the source that are not given here.

Tests used:
[1] = test system: premenopausal women with endometriosis with associated pain; assay: Rescue analgesic (opioid, naproxen) use in EM-I and EM-II; type: in vivo, human
Description: These effects were less consistently observed for women taking elagolix 150 mg QD. […] Reduction in pain may be reflected by reduction in pain medication, such as prescription opioids or non-steroidal anti-inflammatory agents (NSAIDs) that may be prescribed or found over the counter, for example, naproxen or acetaminophen. […] In this pooled analysis of rescue analgesic use in two phase 3 trials, compared with placebo: […] […] In EM-1 and EM-2, 59% and 60% of patients used an opioid rescue analgesic for pain at baseline. The opioid rescue analgesics used at baseline were predominantly hydrocodone/acetaminophen (HC/APAP) and codeine/APAP at strengths of 5/300-325 mg and 30/300-500 mg. In EM-1, of all patients on an opioid at baseline, 98% and 2% were on HC/APAP and codeine/APAP, respectively. In EM-2, of all patients on an opioid at baseline, 50% were on HC/APAP, 16% were on codeine/APAP, 3% were on codeine, and 32% were on tramadol/APAP.

[2] = Compound A solubility experiment in water at 37° C. (gel formation); type: physicochemical
Description: The dotted line in FIG. 2 is the theoretical concentration based on the weights of the solids added and the volume of water. […] Deviation of the concentrations from the theoretical line is due to the volume expansion upon dissolution of large amount of solutes. Beyond that, the concentrations deviate from the theoretical line, but the solution is still clear and no visible gelling was observed. When more than 500 mg of Compound A solid was added, visible gelling was observed, therefore, concentrations were not determined.

[3] = Mutagenicity studies, in vitro and in vivo test systems
Excerpt: Mutagenicity studies have been performed with elagolix using in vitro and in vivo test systems.

[4] = test system: premenopausal women with endometriosis with associated pain; assay: Study EM-I: responders on Daily Endometriosis Pain Impact Scale; type: in vivo, human; details: 150 mg QD
Excerpt: Each placebo-controlled study assessed the reduction in endometriosis-associated pain over 6 months of treatment. More than 75 percent of women who completed Study EM-I and EM-II enrolled in the extension studies for an additional 6 months treatment period. Subjects were followed for up to 12 months post-treatment. See FIGS. 11-14 The co-primary efficacy endpoints were the proportion of responders for dysmenorrhea and pelvic pain not related to menses (also known as non-menstrual pelvic pain [NMPP]) at Month 3 compared to placebo. The primary analysis independently evaluated these endpoints using a daily diary that asked patients to assess their pain and its impact on their daily activities, over the previous 24 hours. […] Women were defined as responders if they experienced clinically meaningful reduction in dysmenorrhea and/or NMPP with no increased analgesic use for endometriosis associated pain. Dyspareunia was evaluated as a secondary endpoint using the Daily Endometriosis Pain Impact Scale.

[5] = Pharmacokinetics in renal impairment; type: in vivo, human; details: moderate to severe or end stage renal disease vs normal renal function
Excerpt: The mean exposures are similar for women with moderate to severe or end stage renal disease (including women on dialysis) compared to women with normal renal function.

[6] = test system: women with moderate to severe endometriosis-related pain; assay: PROMIS Fatigue SF-6a T-score in Phase III endometriosis study; type: in vivo, human
Description: A Phase III study was conducted to assess the effects of elagolix for clinically meaningful reductions in pain and other symptoms. Data provided examined the impact of elagolix on fatigue in women with moderate to severe endometriosis-related pain. […] Fatigue was assessed using the Patient Reported Outcome Measurement Information System (PROMIS®), Fatigue Short Form (SF) 6a. Six items assessed a range of self-reported symptoms from mild, subjective feelings of tiredness to overwhelming, sustained sense of exhaustion that likely decreases one's ability to execute daily activities and function normally. The domain was divided into the experience of fatigue (frequency, duration and intensity) and impact of fatigue on physical, mental and social activities. All items assessed fatigue over the previous seven days. Responses to each question was filed on a 5-item Likert scale: 1—“Not at all”; 2—“A little bit”; 3—“Somewhat”; 4—“Quite a bit”; and 5—“Very much.” The questionnaire was administered at baseline and months 1, 3, and 6. Lower scores indicated less fatigue. Post-hoc, Fatigue SF-6a raw scores were converted to T-scores. The T-score rescales […] the raw score into a standardized score such that the general population has a mean of 50 and a standard deviation (SD) of 10. Analysis: […] ANCOVA controlled for treatment as main effect. Baseline Fatigue SF-6a T-score included as a covariate.

[7] = test system: cytochrome P450 (CYP) 3A enzyme; assay: Elagolix as inducer and substrate of CYP3A
Excerpt: Co-administration with elagolix may decrease plasma concentration of drugs that are substrates of CYP3A.
Elagolix is a substrate of CYP3A, P-gp, and organic anion transporting polypeptide (OATP)1B1. Clinically meaningful interactions are not expected when elagolix is co-administered with drugs that inhibit CYP3A or P-gp.

[8] = test system: premenopausal women with endometriosis with associated pain; assay: Blinded extension studies EM-III and EM-IV (12 months); type: in vivo, human; details: patients maintained on their dose
Excerpt: Each placebo-controlled study assessed the reduction in endometriosis-associated pain over 6 months of treatment. More than 75 percent of women who completed Study EM-I and EM-II enrolled in the extension studies for an additional 6 months treatment period. Subjects were followed for up to 12 months post-treatment. In study EM-IV, efficacy was maintained when elagolix was taken with and without food.

COc1cccc(-c2c(C)n(Cc3c(F)cccc3C(F)(F)F)c(=O)n(C[C@H](NCCCC(=O)O)c3ccccc3)c2=O)c1F [Compound A, 4-((R)-2-[5-(2-fluoro-3-methoxy-phenyl)-3-(2-fluoro-6-trifluoromethyl-benzyl)-4-methyl-2,6-dioxo-3,6-dihydro-2H-pyrimidin-1-yl]-1-phenyl-ethylamino)-butyric acid]
amount of opioid or naproxen rescue medication used vs baseline ([1]; 200 mg BID): reduced the amount of opioid (hydrocodone with acetaminophen) or naproxen rescue medication | mean percent daily rescue opioid pill counts ([1]; pooled analysis, 200 mg BID, vs placebo): significant reduction in the mean percent daily pill counts | percentage of days in which rescue opioid medication was taken ([1]; pooled analysis, both doses 150 QD and 200 BID, vs placebo): significant reduction in the percentage of days in which rescue opioid medication was taken | Final pH ([2]; 12.2 mg added to 1.5 mL water): 9.66 | Measured Concentration ([2]; 12.2 mg added to 1.5 mL water): 7.45 mg/mL | Observation ([2]; 12.2 mg added to 1.5 mL water): Clear solution | Final pH ([2]; 28.7 mg added to 1.5 mL water): 9.96 | Measured Concentration ([2]; 28.7 mg added to 1.5 mL water): 17.3 mg/mL | Observation ([2]; 28.7 mg added to 1.5 mL water): Clear solution | Final pH ([2]; 49.8 mg added to 1.5 mL water): 10.10 | Measured Concentration ([2]; 49.8 mg added to 1.5 mL water): 28.0 mg/mL | Observation ([2]; 49.8 mg added to 1.5 mL water): Clear solution | Final pH ([2]; 100.4 mg added to 1.5 mL water): 10.16 | Measured Concentration ([2]; 100.4 mg added to 1.5 mL water): 60.8 mg/mL | Observation ([2]; 100.4 mg added to 1.5 mL water): Clear solution | Final pH ([2]; 202.5 mg added to 1.5 mL water): 10.18 | Measured Concentration ([2]; 202.5 mg added to 1.5 mL water): 111 mg/mL | Observation ([2]; 202.5 mg added to 1.5 mL water): Clear solution | Final pH ([2]; 295.6 mg added to 1.5 mL water): 10.20 | Measured Concentration ([2]; 295.6 mg added to 1.5 mL water): 149 mg/mL | Observation ([2]; 295.6 mg added to 1.5 mL water): Clear solution | Final pH ([2]; 503.2 mg added to 1.5 mL water): 10.17 | Measured Concentration ([2]; 503.2 mg added to 1.5 mL water): 170 mg/mL | Observation ([2]; 503.2 mg added to 1.5 mL water): Clear solution | Observation ([2]; 700.9 mg added to 1.5 mL water): Gel formation | Observation ([2]; 990.0 mg added to 1.5 mL water): Gel formation | mutagenic or clastogenic potential [3]: no evidence of a mutagenic or clastogenic potential | Proportion of Responders, Dysmenorrhea (Month 3) [4]: 45.4*** % | exposures (Cmax and AUC) in renal impairment [5]: not altered by renal impairment | PROMIS Fatigue SF-6a T-Score ([6]; 200 mg, Month 1, vs placebo): statistically significant reduction in fatigue | PROMIS Fatigue SF-6a T-Score ([6]; both doses (150 mg QD, 200 mg BID), Months 3 and 6, vs placebo): Statistically significant reductions relative to placebo | induction of cytochrome P450 (CYP) 3A enzyme [7]: weak to moderate inducer | substrate of CYP3A [7]: substrate | durability of improvement in dysmenorrhea, NMPP and dyspareunia [8]: demonstrated for a total of 12 months
